“Also recorded” adds a separate entry of the source. Read-outs that look alike come from different tables or passages of the source.
Columns and labels:
[1] = system: isoamylase of Xanthomonas maltophilia S-517; assay: Influence of inhibitors and metal salts on isoamylase activity; type: biochemical; settings: for Inhibition by Metal Salt: Table 3, isoamylase of Xanthomonas maltophilia S-517 (Invention); for Inhibition of the enzyme of the present invention: in words
Method: Measurements of activity of the enzyme of the present invention were made as follows in accordance with the method of Maruo-Kobayashi (see NIHON NOGEI KAISHI, Vol. 23, pp. 115-120 (1949).
A reaction system consisting of 2.0 ml of a 1.0% soluble starch (glutinous rice) solution, 0.4 ml of a 0.5M acetate buffer solution (pH=3.5), and 0.4 ml of an enzyme liquid was allowed to react at 40° C. for 30 minutes. To the reaction system was added 0.4 ml of a 0.01N iodine solution. After dilution with water to 10 ml, the absorbance at 610 nm was measured. The enzyme activity on an absorbance increase of 0.1 within 1 hour was taken as 10 units.

[2] = system: isoamylase of Pseudomonas origin; settings: cited from earlier work; for Inhibition by Metal Salt: Table 3, isoamylase of Pseudomonas origin; for Inhibition of the enzyme derived from Pseudomonas: in words
[3] = system: isoamylase of Xanthomonas maltophilia S-517; assay: Substrate specificity of the purified isoamylase; type: biochemical; settings: for Substrate specificity: in words; for Initial Velocity: relative, glycogen = 100; for V: velocity of the purified isoamylase on the named substrate

## O=[N+]([O-])c1ccc(O)c(CBr)c1 [2-Hydroxy-5-nitrobenzyl bromide]
[1]; inhibitor concentration 0.1 mM
  Percent Inhibition: 14.3%

## CC(=O)I [Acetyl monoiodide]
[1]; inhibitor concentration 0.1 mM
  Percent Inhibition: 10.1%
[1]; inhibitor concentration 5 mM
  Percent Inhibition: 34.6%

## O=[N+]([O-])[O-].[Ag+] [AgNO3]
[1]; inhibitor concentration 1 mM
  Percent Inhibition: 98.0%

## [Cl][Cu][Cl] [CuCl2]
[1]; inhibitor concentration 1 mM
  Percent Inhibition: 20.7%

## O=C(O)CN(CCN(CC(=O)O)CC(=O)O)CC(=O)O [EDTA]
[1]; inhibitor concentration 5 mM
  Percent Inhibition: 0%

## O=C1O[C@H](CO)[C@@H](O)[C@H](O)[C@H]1O [Glucono-1,5-lactone]
[1]; inhibitor concentration 10 mM
  Percent Inhibition: 8.0%

## [Cl][Hg][Cl] [HgCl2]
[1]; inhibitor concentration 1 mM
  Percent Inhibition: 42.2%

## [Cl-].[Cl-].[Mg+2] [MgCl2]
[2]
  Inhibition by Metal Salt: 0%
  Inhibition of the enzyme derived from Pseudomonas: not inhibited
[1]
  Inhibition by Metal Salt: 26.3%
  Inhibition of the enzyme of the present invention: inhibited
[1]; inhibitor concentration 1 mM
  Percent Inhibition: 26.3%

## O=C1CCC(=O)N1Br [N-Bromosuccinimide]
[1]; inhibitor concentration 0.01 mM
  Percent Inhibition: 100.0%

## [Cl-].[Na+] [NaCl]
[1]
  Percent Inhibition: 0%

## [F-].[Na+] [NaF]
[2]
  Inhibition by Metal Salt: 19%
  Inhibition of the enzyme derived from Pseudomonas: inhibited
[1]
  Inhibition by Metal Salt: 0%
  Inhibition of the enzyme of the present invention: not inhibited
[1]; inhibitor concentration 1 mM
  Percent Inhibition: 0%

## O=C(O)c1cc[c]([Hg][Cl])cc1 [PCMB]
[2]
  Inhibition by Metal Salt: 34%
  Inhibition of the enzyme derived from Pseudomonas: inhibited
[1]
  Inhibition by Metal Salt: 0%
  Inhibition of the enzyme of the present invention: not inhibited
[1]; inhibitor concentration 1 mM
  Percent Inhibition: 0%

## I[I-]I.[K+] [Potassium iodoiodide]
[1]; inhibitor concentration 1 mM
  Percent Inhibition: 4.5%

## O=C1CCC(=O)O1 [Succinic anhydride]
[1]; inhibitor concentration 5 mM
  Percent Inhibition: 8.4%

## OCCS [β-Mercaptoethanol]
[1]; inhibitor concentration 10 mM
  Percent Inhibition: 31.7%

## Ammonium molybdate
[1]; inhibitor concentration 1 mM
  Percent Inhibition: 0%

## Amylopectin
[3]
  Substrate specificity: acts
  Initial Velocity: 34.7%
  V: 2.18 × 10^-1 μmol/min/U

## Glycogen
[3]
  Substrate specificity: actively acts
  Initial Velocity: 100%
  V: 6.28 × 10^-1 μmol/min/U

## Pullulan
[3]
  Substrate specificity: does not act; also recorded: hardly acts
  Initial Velocity: 1.3%
  V: 8.45 × 10^-3 μmol/min/U

Reference: patent publication US5352602A, “Isoamylase and process for producing the same” (Amano Pharmaceutical Co., Ltd., priority 1992, dated 1994)
